One compound from US9062050B2, “Inhibitor of JAK1 and JAK2” (Eli Lilly and Company, priority 2012, dated 2015) can be followed below.

This experiment addresses T1, JAK3 (Homo sapiens, UniProt P52333).
T1 sequence (P52333 1-1124): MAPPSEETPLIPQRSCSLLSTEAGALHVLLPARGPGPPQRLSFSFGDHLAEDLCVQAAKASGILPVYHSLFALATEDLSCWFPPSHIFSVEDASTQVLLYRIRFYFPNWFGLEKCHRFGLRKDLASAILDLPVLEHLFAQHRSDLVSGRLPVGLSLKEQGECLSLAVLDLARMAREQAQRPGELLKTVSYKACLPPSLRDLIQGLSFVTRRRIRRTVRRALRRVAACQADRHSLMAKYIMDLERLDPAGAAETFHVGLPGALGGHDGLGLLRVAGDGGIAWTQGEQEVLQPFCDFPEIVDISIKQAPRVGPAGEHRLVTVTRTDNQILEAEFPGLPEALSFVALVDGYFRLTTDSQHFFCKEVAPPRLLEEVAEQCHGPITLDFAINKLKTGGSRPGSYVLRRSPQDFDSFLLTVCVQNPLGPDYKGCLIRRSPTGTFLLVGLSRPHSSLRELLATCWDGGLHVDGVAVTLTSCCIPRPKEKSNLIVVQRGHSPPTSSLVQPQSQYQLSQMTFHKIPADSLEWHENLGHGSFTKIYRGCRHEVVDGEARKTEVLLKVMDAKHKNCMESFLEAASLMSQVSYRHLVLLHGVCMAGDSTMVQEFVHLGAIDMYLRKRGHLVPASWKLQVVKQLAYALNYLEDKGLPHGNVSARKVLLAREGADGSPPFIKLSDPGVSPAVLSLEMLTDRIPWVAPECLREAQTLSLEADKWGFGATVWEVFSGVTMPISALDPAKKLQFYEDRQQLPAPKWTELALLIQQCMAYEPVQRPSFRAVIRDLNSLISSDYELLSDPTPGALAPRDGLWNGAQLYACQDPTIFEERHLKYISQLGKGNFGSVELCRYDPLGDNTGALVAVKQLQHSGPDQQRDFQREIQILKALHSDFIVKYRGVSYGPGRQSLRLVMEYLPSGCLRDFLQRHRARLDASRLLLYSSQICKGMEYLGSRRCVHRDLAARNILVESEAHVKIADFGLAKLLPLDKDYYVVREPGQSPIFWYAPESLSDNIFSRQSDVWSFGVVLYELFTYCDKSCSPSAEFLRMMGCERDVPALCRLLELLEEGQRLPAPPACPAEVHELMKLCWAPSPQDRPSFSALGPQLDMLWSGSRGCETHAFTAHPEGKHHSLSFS
The experiment can be described thus: JAK LanthaScreen Kinase Assay (TR-FRET), JAK3. Type of experiment: biochemical. The text has this: The JAK LanthaScreen™ Kinase Assay (Life Technologies, #PV4844) is used to determine compound IC50 values against the JAK1, JAK2, and JAK3 kinases. This kinase assay is a Time Resolved Fluorescence Resonance Energy Transfer (TR-FRET) assay format that uses long-lifetime terbium (Tb) labeled antibody as the donor species and Green Fluorescent Protein-Signal Transducers and Activators of Transcription (GFP-STAT1) as the acceptor species.
The TR-FRET ratio is used to monitor JAK1, JAK2, or JAK3 activity where an increase in phosphorylation of the GFP-STAT1 results in an increase in the TR-FRET ratio. Perform the kinase reaction using a 12.5 microliter reaction volume in shallow black 384-well Proxiplate (PerkinElmer, #6008260). […] Incubate at room temperature for 90 minutes, and read in an EnVision plate reader (PerkinElmer, #2104-0010) with 340 nm wavelength excitation filter and emission filters of 520 nm and 495 nm wavelengths. The ratio is derived from the emission wavelength for the GFP-STAT1 which is measured at 520 nanometer versus the emission at 495 nanometer for the Tb-anti-pSTAT1[pTyr701]. Derive the IC50 value for the compound using percent inhibition data, which is calculated from the reaction data relative to on-plate controls (active enzyme versus 2.0 micromolar control-inhibited enzyme). […]
On the technique in general: Time-resolved FRET reads energy transfer from a long-lived donor to a nearby acceptor.

pIC50: −log10 of the molar value.

Turning to `Cc1cc(Nc2ccc3ncn([C@@H]4CCc5ccc(F)cc54)c3n2)[nH]n1.Cl.Cl` [Example 1, 3-[(1R)-6-fluoro-2,3-dihydro-1H-inden-1-yl]-N-(3-methyl-1H-pyrazol-5-yl)-3H-imidazo[4,5-b]pyridin-5-amine dihydrochloride], the negative logarithm of the IC50 (pIC50) (enzyme assay, 2 micromolar ATP, n=6, read-out: IC50 against JAK3) is 8.10. For the same compound, for the setting “enzyme assays, JAK1 and JAK2 versus JAK3”, the “selectivity for JAK1 and JAK2 over JAK3 in the enzyme assays” value is “greater than four-fold”.

For orientation: pIC50 means the negative decadic logarithm of the IC50, by convention in mol/L.
